Measured values taken from PubChem BioAssay AID1159565 (GlaxoSmithKline (GSK), 2015).
Calls of active or inactive are those of the source. No rule for the calls is given here.

Tested on: T. cruzi-infected H9C2 cardiomyocytes, high-content imaging
Test: anti-T. cruzi activity in infected cardiomyocytes – imaging, H9C2 host cardiomyocytes, host toxicity (AID 1159565);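 also: infected cells incubated 72 h after plating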
[1] = measured here: H9C2 host cell toxicity
[2] = measured here: amastigotes per cell

Row | SMILES | IC50 | IC50 [1] [µM] | IC50 [2] [µM]
1 | CCCn1c(NC(=O)Cc2ccc(Cl)cc2)nc2ccccc21 | 2 µM | > 50 | 1.3
2 | CCCCNc1nccc(-c2c(-c3ccc(F)cc3)nn3c(N4CCOCC4)cccc23)n1 | 3.2 µM | > 50 | 1
3 | O=C(Nc1nc2ccccc2[nH]1)c1c(O)c2cccc3c2n(c1=O)CC3 | 16 µM | 10 | 25
4 | Cn1c(CC(=O)NNC(=O)c2ccc3ccccc3n2)nc2ccccc21 | 5 µM | > 50 | 6.3
5 | O=C(CN(Cc1ccccn1)Cc1ccccn1)NCc1ccc(-c2csnn2)cc1 | 63 µM | > 79 | 7.9
6 | c1ccc(CCNCc2cncc3nc(-c4cnccn4)n(C4CCCCC4)c23)cc1 | 0.13 µM | > 50 | 0.13
7 | Cc1ccccc1CNC(=O)CN(Cc1ccccn1)Cc1ccccn1 | 16 µM | > 79 | 6.3
8 | C[C@@H](Oc1cc(-n2cnc3ccc(CC(O)CO)cc32)sc1C(N)=O)c1ccccc1Cl (some centres undefined) | 50 µM | 0.13 | 13
9 | N#Cc1cc(N2CCCC2=O)ccc1Sc1ccccc1CO | 0.4 µM | > 50 | 0.25
10 | O=C(Nc1cccc(Cl)c1)N1CCCCC1c1cccnc1 (centres undefined) | 0.2 µM | > 50 | 0.2
11 | CNS(=O)(=O)c1ccccc1Nc1nc(Nc2ccnn2C)ncc1Cl | 1 µM | 0.16 | 0.63
12 | N#CN1CC[C@@H](NC(=O)Nc2ccccc2Oc2ccccc2)C1 | 4 µM | 20 | 5
13 | O=C(Nc1nc(-c2ccccn2)cs1)N1C[C@H]2C[C@@]2(c2ccccc2)C1 | 0.5 µM | 0.79 | 0.25
14 | COc1cccc(NS(=O)(=O)c2ccc3[nH]cc(C(=O)NCCC(C)C)c(=O)c3c2)c1 | 32 µM | 13 | 16
15 | COc1ccc(CN(C)Cc2ccncc2)cc1-c1ccc(S(=O)(=O)NC2CCC2)s1 | 0.63 µM | 10 | 0.5
16 | Cc1[nH]n2c(=O)c3c(nc2c1-c1ccc(Cl)cc1)CCCC3 | 1 µM | > 50 | 0.25
17 | CCc1cccc(CC)c1-n1c(SCC(=O)N2CC(=O)Nc3ccccc32)nnc1-c1cccnc1 | 32 µM | > 50 | 25
18 | CCC(=O)Nc1ccc(C(=O)Nc2ccccc2-c2ccccc2)cc1 | 0.5 µM | > 50 | 0.25
19 | O=C(c1cccc(Cl)c1Cl)N1CCn2c1nc(-c1ccncc1)cc2=O | 0.32 µM | > 50 | 0.32
20 | CNC(=O)C1Cc2ccccc2N1C(=O)Cc1ccccc1 (centres undefined) | > 50 µM (inactive) | > 50 | > 50
21 | Cc1cc(C)n(-c2nc(NC(C)(C)C)nc(N3CCOCC3)n2)n1 | 10 µM | 1.3 | 3.2
22 | Cc1cn[nH]c1C1CCCN(Cc2nc3ccccc3n2C)C1 (centres undefined) | 20 µM | > 50 | 10
23 | Cc1nc(N2CCC(C(=O)N3CCC(O)(c4cccnc4)CC3)CC2)nc2ccc(C(C)C)cc12 | 0.32 µM | 40 | 0.4
24 | O=C(Nc1nc(-c2ccc(S(=O)(=O)N3CCOCC3)cc2)cs1)c1ccc([N+](=O)[O-])cc1 | 1.6 µM | > 50 | 0.5
25 | COc1ccc(S(=O)(=O)Nc2ccc(CN3CCN(C(=O)c4cccc(C#N)c4)CC3)cc2)cc1 | 1 µM | > 50 | 0.79
26 | CCCCn1c(=O)c2c(N)onc2n(CCCC)c1=O | 32 µM | 25 | 25
27 | NC(=O)c1ccccc1Nc1nc(NC2CCCCC2)nc2[nH]ccc12 | 1 µM | 25 | 1
28 | CC1CCCCN1C(=O)NCCc1coc(-c2ccc(F)cc2)n1 (centres undefined) | 0.32 µM | > 50 | 0.32
